Experimental findings from paper PMC6804243, “Small-Molecule Inhibition of UBE2T/FANCL-Mediated Ubiquitylation in the Fanconi Anemia Pathway” (ACS Chemical Biology, 2019) are described below.

The subject of data set [1] is U2OS cells. Kind of data set: Cell cycle analysis based on EdU incorporation. The following applies: for S-phase indices: CU1 200 μM or CU2 500 μM. The method, then: Figure 3 Cell-based assays with CU1 and CU2: (a) Western blot showing that the formation of mUb-FANCD2(*), in response to HU treatment (2.5 mM, 8 h), is impaired in U2OS cells in the presence of CU1 (200 μM) or CU2 (500 μM). Ratio = mUb-FANCD2/FANCD2 (normalized to DMSO control). mUb-FANCD2 was resolved on a separate gel. PARP1 was used as a loading control for each gel, as well as to assess apoptosis. (b) Quantification of the reduction in mUb-FANCD2, in response to HU treatment (2.5 mM, 8 h) in the presence of CU1 (200 μM) or CU2 (500 μM). Mean calculated from three independent experiments. (c) Western blot showing that formation of mUb-FANCD2 (denoted by an asterisk symbol, *) in response to cisplatin treatment (10 μM) for 6, 12, and 24 h is impaired in U2OS cells in the presence of CU2 (500 μM). Ratio = mUb-FANCD2/FANCD2 (normalized to DMSO control). (d) Cell cycle analyses based upon EdU incorporation in cells treated with HU (2.5 mM, 8 h) in the presence or absence of CU1 (200 μM) or CU2 (500 μM). HU treatment was used for gating purposes. […] TEXT PRINTED IN THE PICTURE: (d) DMSO: S-phase 42.7; G1 29.2; G2-M 27.8 | (d) HU: S-phase 0.24; G1 72.4; G2-M 22.9 | (d) CU1: S-phase 43.4; G1 26.8; G2-M 29.1 | (d) CU2: S-phase 39.7; G1 31.9; G2-M 28.2 DOUBTS OF THE COPYIST ABOUT THIS PICTURE: Panel d print is small, so these digits are best readings: DMSO G2-M 27.8 (8 or 6); CU1 G1 26.8 (6 or 8); CU2 S-phase 39.7 (9 or 8); CU2 G2-M 28.2 (8 or 6) / Panels a and c: the lane ratios printed under the western blots (a: 1.0, 0.64, 0.40; c: 1.0/0.65, 1.0/0.63, 1.0/0.53) were left out because they belong to blots and the picture prints no measure for them […]
As DNA damage induced by HU is cell-cycle-dependent, it was necessary to establish whether CU1 and CU2 might simply prevent cells from entering the S-phase, which would also manifest itself as a reduction in mUb-FANCD2. This was determined by analysis of several biomarkers linked to DNA damage in cycling cells. […]

The test system of data set [2] is U2OS cells. The data set is described as follows: Tolerance / cytotoxicity of compounds in U2OS cells. In kind it is cell-based. To be noted: compound at 500 μM, 8 h assay. The method, then: U2OS cells were treated with HU and the formation of mUb-FANCD2 in the presence of CU 1, CU2, and CU9 was evaluated relative to a DMSO control. Following a 1-h preincubation with the compounds, cells were treated with 2.5 mM of HU for 24 h. […] Accordingly, cells were treated with a higher concentration of compounds in further experiments.

Take `NCCN1C(=O)CC[C@H]2CN(Cc3cccc(-c4ccco4)c3)CC[C@H]21` [CU1]: in the data set with U2OS cells [1] (CU1 200 μM), the EdU incorporation intensity entry is listed as “slightly lower”. Moreover, the S-phase indices result with U2OS cells [1] was “no reduction in S-phase indices”. In the case of `CCN1CCN(c2cc(C)nc3nc(CN4CCCCC4C)nn23)CC1` (centres unmarked) [CU2], in the data set with U2OS cells [2], the tolerance by cells entry was “tolerated”. In addition, in the data set on U2OS cells [1], the S-phase indices entry is listed as “no reduction in S-phase indices”.

`Cc1nnc(N(C)CC2CCN(CC(C)O)CC2)c(C#N)c1C` (centres unmarked) [CU9]: the tolerance by cells entry in the data set with U2OS cells [2] was “tolerated”.
